Reference: US5109111A, “CRF antagonists” (The Salk Institute for Biological Studies, priority 1990, dated 1992)

Experiments:
[1] = test system: secretion of ACTH and β-endorphin-like (β-END-LI) immunoactivities; experiment: hCRF stimulation of ACTH and β-END-LI secretion in vivo in rats
Protocol: Plasma levels of ACTH and β-END-LI are elevated for at least 5-20 minutes following the intraveneous administration of hCRF to nembutal-anesthesized male rats and to quiescent male or female rats with indwelling intravenous cannulae. […] These antagonists should counteract such effects.

[2] = test system: TRF-stimulated secretion of TSH and prolactin; experiment: Specificity: TRF-stimulated secretion of TSH and prolactin; assay type: cell-based
From the text: (§1) Compared to AHC(9-41), a potent CRF antagonist disclosed in U.S. Pat. No. 4,605,642, this peptide was more than 17 times as potent.

[3] = test system: GnRH-stimulated secretion of LH and FSH; experiment: Specificity: GnRH-stimulated secretion of LH and FSH; assay type: cell-based
From the text: as §1

[4] = test system: GRF-stimulated secretion of GH; experiment: Specificity: GRF-stimulated secretion of GH; assay type: cell-based
From the text: as §1

[5] = test system: ACTH release; experiment: In vivo duration of lowering ACTH release after iv injection, against the Standard; set-up: species or system rats

Compound | time plasma levels of ACTH and β-END-LI are elevated ([1]; intravenous hCRF, nembutal-anesthetized male rats and quiescent cannulated male or female rats) [min] | stimulation of secretion of ACTH and β-END-LI in vivo ([1]; several rat preparations) | effect on TRF-stimulated secretion of TSH and prolactin [2] | effect on GnRH-stimulated secretion of LH and FSH [3] | effect on GRF-stimulated secretion of GH [4] | duration of bioactivity (lowering ACTH release) ([5]; dosages of 0.5 mg, two runs) | duration of effectiveness in lowering ACTH release ([5]; dose of 0.1 mg)
CC[C@H](C)[C@H](NC(=O)[C@@H](NC(=O)[C@H](CCC(=O)O)NC(=O)[C@H](CCSC)NC(=O)[C@H](CC(C)C)NC(=O)[C@H](CCCCN)NC(=O)[C@H](CCCNC(=N)N)NC(=O)[C@H](CC(N)=O)NC(=O)[C@H](CO)NC(=O)[C@H](Cc1c[nH]cn1)NC(=O)[C@H](C)NC(=O)[C@H](CCC(N)=O)NC(=O)[C@H](CCC(N)=O)NC(=O)[C@H](C)NC(=O)[C@H](CC(C)C)NC(=O)[C@H](CCC(N)=O)NC(=O)[C@H](CCC(=O)O)NC(=O)[C@H](C)NC(=O)[C@H](CCCNC(=N)N)NC(=O)[C@H](C)NC(=O)[C@H](CCSC)NC(=O)[C@H](CCC(=O)O)NC(=O)[C@H](CC(C)C)NC(=O)[C@@H](NC(=O)[C@H](CCC(=O)O)NC(=O)[C@H](CCCNC(=N)N)NC(=O)[C@H](CC(C)C)NC(=O)[C@H](CC(C)C)NC(=O)[C@H](Cc1c[nH]cn1)NC(=O)[C@H](Cc1ccccc1)NC(=O)[C@@H](NC(=O)[C@H](CC(C)C)NC(=O)[C@H](CC(=O)O)NC(=O)[C@H](CC(C)C)NC(=O)[C@H](CO)NC(=O)[C@@H](NC(=O)[C@@H]1CCCN1C(=O)[C@@H]1CCCN1C(=O)[C@H](CCC(=O)O)NC(=O)[C@H](CCC(=O)O)NC(=O)[C@@H](N)CO)[C@@H](C)CC)[C@@H](C)O)C(C)C)[C@@H](C)CC)C(N)=O [hCRF] | 5 to 20 | powerful stimulator | – | – | – | – | –
AHC(9-41) | – | – | no effect | no effect | no effect | about 40 minutes | no measurable effect
